Measurements from patent US9656971B2, “COMT inhibitors” (Hoffmann-La Roche Inc., priority 2012, dated 2017).

Each compound was assayed against T1, Rec. human COMT (Homo sapiens, UniProt P21964) (assay: COMT-Fluorescence Assay). Details: COMT-fluorescence assay, rec. human COMT 25 nM, 4-Nitrocatechol-Alexa488 200 nM, SAM 500 nM; read-out: IC50.
T1 sequence (P21964 1-271): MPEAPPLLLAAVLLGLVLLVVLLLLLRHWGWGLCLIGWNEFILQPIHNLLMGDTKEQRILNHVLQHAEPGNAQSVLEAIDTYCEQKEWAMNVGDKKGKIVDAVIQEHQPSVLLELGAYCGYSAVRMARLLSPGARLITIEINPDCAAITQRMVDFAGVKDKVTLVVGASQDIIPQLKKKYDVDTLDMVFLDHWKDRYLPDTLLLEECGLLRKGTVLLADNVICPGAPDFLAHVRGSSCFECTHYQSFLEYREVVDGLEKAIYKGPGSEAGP
Type: biochemical
Experimental: This intramolecular interaction is disturbed if the 4-Nitrocatechol is methylated. […] This increase of fluorescence intensity can be followed in a kinetic measurement. The slope in the linear range of the kinetic is calculated. An inhibitor compound decreases the slope.
Signal [rfu/min]=(rfu(end-point)−rfu(startpoint))/incubation_time_#2
Work on `O=c1[nH]cnc2c(O)cc(C3CCc4ccccc4C3)cc12` (racemic) [Example 8, (rac.) 8-Hydroxy-6-(1,2,3,4-tetrahydronaphthalen-2-yl)quinazolin-4(3H)-one] yielded an IC50 of 100 nM.
`COC(=O)C(C)c1ccc(-c2ccccc2)c(-c2cc(O)c3nc[nH]c(=O)c3c2)c1` (racemic) [Example 32, (rac.) Methyl 2-(2-(8-hydroxy-4-oxo-3,4-dihydroquinazolin-6-yl)biphenyl-4-yl)propanoate] gave an IC50 of 2000 nM.
`O=c1[nH]cnc2c(O)ccc(Br)c12` [Example 1, 5-Bromo-8-hydroxyquinazolin-4(3H)-one] gave an IC50 of 500 nM.
`COC(=O)c1cc(O)c2nc[nH]c(=O)c2c1` [Example 2, Methyl 8-hydroxy-4-oxo-3,4-dihydroquinazoline-6-carboxylate] gave an IC50 of 30 nM.
`O=C(c1cc(O)c2nc[nH]c(=O)c2c1)N1CCOCC1` [Example 3, 8-Hydroxy-6-(morpholine-4-carbonyl)quinazolin-4(3H)-one] was tested, and the IC50 was 4210 nM.
`O=C(NCC(F)(F)C(F)(F)F)c1cc(O)c2nc[nH]c(=O)c2c1` [Example 4, 8-Hydroxy-4-oxo-N-(2,2,3,3,3-pentafluoropropyl)-3,4-dihydroquinazoline-6-carboxamide] showed an IC50 of 170 nM.
`O=C(NCC(F)(F)F)c1cc(O)c2nc[nH]c(=O)c2c1` [Example 5, 8-Hydroxy-4-oxo-N-(2,2,2-trifluoroethyl)-3,4-dihydroquinazoline-6-carboxamide] gave an IC50 of 660 nM.
For `CCOC(=O)c1cc(O)c2nc[nH]c(=O)c2c1` [Example 6, Ethyl 8-hydroxy-4-oxo-3,4-dihydroquinazoline-6-carboxylate], the IC50 was 20 nM.
Compound `O=c1[nH]cnc2c(O)cc(C3=Cc4ccccc4CC3)cc12` [Example 7, 6-(3,4-Dihydro-naphthalen-2-yl)-8-hydroxy-3H-quinazolin-4-one] has an IC50 of 10 nM.
Work on `O=c1[nH]cnc2c(O)cc(Cc3ccccc3)cc12` [Example 9, 6-Benzyl-8-hydroxyquinazolin-4(3H)-one] yielded an IC50 of 1330 nM.
`O=c1[nH]cnc2c(O)cc(Cc3ccccc3F)cc12` [Example 11, 6-(2-Fluorobenzyl)-8-hydroxyquinazolin-4(3H)-one] showed an IC50 of 1250 nM.
`Cc1cccc(Cc2cc(O)c3nc[nH]c(=O)c3c2)c1` [Example 12, 8-Hydroxy-6-(3-methylbenzyl)quinazolin-4(3H)-one] gave an IC50 of 1470 nM.
For `CC(C)c1cc(O)c2nc[nH]c(=O)c2c1` [Example 13, 8-Hydroxy-6-isopropylquinazolin-4(3H)-one], the IC50 was 1000 nM.
Work on `COc1ccccc1Cc1cc(O)c2nc[nH]c(=O)c2c1` [Example 14, 8-Hydroxy-6-(2-methoxybenzyl)quinazolin-4(3H)-one] yielded an IC50 of 4900 nM.
In the case of `COc1cccc(Cc2cc(O)c3nc[nH]c(=O)c3c2)c1` [Example 15, 8-Hydroxy-6-(3-methoxybenzyl)quinazolin-4(3H)-one], the IC50 is reported as 1200 nM.
`O=c1[nH]cnc2c(O)cc(CCc3ccccc3)cc12` [Example 16, 8-Hydroxy-6-phenethylquinazolin-4(3H)-one] showed an IC50 of 560 nM.
With `CC(C)Cc1cc(O)c2nc[nH]c(=O)c2c1` [Example 17, 8-Hydroxy-6-isobutylquinazolin-4(3H)-one] the IC50 was 1100 nM.
`O=c1[nH]cnc2c(O)cc(C3CCCC3)cc12` [Example 18, 6-Cyclopentyl-8-hydroxyquinazolin-4(3H)-one] showed an IC50 of 900 nM.
For `Cc1ccc(C)c2c1C=C(c1cc(O)c3nc[nH]c(=O)c3c1)CC2` [Example 19, 6-(5,8-dimethyl-3,4-dihydro-naphthalen-2-yl)-8-hydroxy-3H-quinazolin-4-one], the IC50 was 80 nM.
`O=c1[nH]cnc2c(O)cc(/C=C/c3ccccc3)cc12` [Example 20, (E)-8-Hydroxy-6-styrylquinazolin-4(3H)-one] gave an IC50 of 90 nM.
In the case of `Cc1ccc(/C=C/c2cc(O)c3nc[nH]c(=O)c3c2)cc1` [Example 21, (E)-8-Hydroxy-6-(4-methylstyryl)quinazolin-4(3H)-one], the IC50 is reported as 100 nM.
Compound `O=c1[nH]cnc2c(O)cc(CCCc3ccccc3)cc12` [Example 22] has an IC50 of 200 nM.
With `O=c1[nH]cnc2c(O)cc(C#Cc3ccccc3)cc12` [Example 23, 8-Hydroxy-6-(phenylethynyl)quinazolin-4(3H)-one] the IC50 was 10 nM.
In the case of `COc1ccc(C(F)(F)F)cc1-c1cc(O)c2nc[nH]c(=O)c2c1` [Example 26, 8-Hydroxy-6-(2-methoxy-5-(trifluoromethyl)phenyl)quinazolin-4(3H)-one], the IC50 is reported as 190 nM.
With `N#Cc1ccc(Cl)c(-c2cc(O)c3nc[nH]c(=O)c3c2)c1` [Example 27, 4-Chloro-3-(8-hydroxy-4-oxo-3,4-dihydroquinazolin-6-yl)benzonitrile] the IC50 was 40 nM.
In the case of `CN(C)c1ccc(/N=N/c2ccccc2)c(-c2cc(O)c3nc[nH]c(=O)c3c2)c1` [Example 29, (E)-6-(5-(Dimethylamino)-2-(phenyldiazenyl)phenyl)-8-hydroxyquinazolin-4(3H)-one], the IC50 is reported as 2800 nM.
In the case of `Cc1ccc(-c2ccc(C(F)(F)F)cc2)c(-c2cc(O)c3nc[nH]c(=O)c3c2)c1` [Example 30, 8-Hydroxy-6-(4-methyl-4′-(trifluoromethyl)biphenyl-2-yl)quinazolin-4(3H)-one], the IC50 is reported as 1400 nM.
`O=c1[nH]cnc2c(O)cc(-c3ccc(F)c(F)c3F)cc12` [Example 31, 8-Hydroxy-6-(2,3,4-trifluoro-phenyl)-3H-quinazolin-4-one] was tested, and the IC50 was 20 nM.
`O=c1[nH]cnc2c(O)c(Br)c(-c3ccc(F)cc3)c(Br)c12` [Example 34, 5,7-Dibromo-6-(4-fluorophenyl)-8-hydroxyquinazolin-4(3H)-one] gave an IC50 of 170 nM.
In the case of `COc1ccc(C(C)(C)C)cc1-c1cc(O)c2nc[nH]c(=O)c2c1` [Example 35, 6-(5-tert-Butyl-2-methoxyphenyl)-8-hydroxyquinazolin-4(3H)-one], the IC50 is reported as 1300 nM.
`COc1ccc(C)cc1-c1cc(O)c2nc[nH]c(=O)c2c1` [Example 36, 8-Hydroxy-6-(2-methoxy-5-methylphenyl)quinazolin-4(3H)-one] gave an IC50 of 80 nM.
`O=c1[nH]cnc2c(O)c(F)c(-c3ccccc3)c(F)c12` [Example 38, 5,7-Difluoro-8-hydroxy-6-phenylquinazolin-4(3H)-one] showed an IC50 of 30 nM.

Same assay, conditions: IC50, COMT-fluorescence assay, rec. human COMT 25 nM, 4-Nitrocatechol-Alexa488 200 nM, SAM 500 nM
`CCc1cc(O)c2nc[nH]c(=O)c2c1` [Example 10, 6-Ethyl-8-hydroxyquinazolin-4(3H)-one 2,2,2-trifluoroacetate] gave an IC50 of 1090 nM.
`CC(C)Oc1cccc(-c2cc(O)c3nc[nH]c(=O)c3c2)c1` [Example 24, 8-Hydroxy-6-(3-isopropoxyphenyl)quinazolin-4(3H)-one] gave an IC50 of 10 nM.
For `O=c1[nH]cnc2c(O)cc(-c3ccc4c(c3)OCC4)cc12` [Example 25, 6-(2,3-Dihydrobenzofuran-6-yl)-8-hydroxyquinazolin-4(3H)-one], the IC50 was 20 nM.
With `O=c1[nH]cnc2c(O)cc(-c3cc(F)c(F)c(F)c3)cc12` [Example 28, 8-Hydroxy-6-(3,4,5-trifluorophenyl)quinazolin-4(3H)-one] the IC50 was 40 nM.
Compound `O=c1[nH]cnc2c(O)cc(-c3c(F)c(F)c(F)c(F)c3F)cc12` [Example 33, 8-Hydroxy-6-(perfluorophenyl)quinazolin-4(3H)-one] has an IC50 of 20 nM.
Work on `O=c1[nH]cnc2c(O)cc(-c3cc(Cl)ccc3Cl)cc12` [Example 37, 6-(2,5-Dichlorophenyl)-8-hydroxyquinazolin-4(3H)-one] yielded an IC50 of 30 nM.
